# Values joined by “and” are separate entries in the source; they are usually repeats but may differ in a detail not shown here. Equal values may be shown once. Records with an inconclusive call do not appear.
# System: MX-1 breast xenograft, nude mice, tumor weight T/C
# Test: NCI In Vivo Anticancer Drug Screen. Data for tumor model Human Mammary Carcinoma MX-1 Xenograft (intrarenal inoculation) in NU/NU Swiss (nude) mice
# Conditions: endpoint: mean tumor weight change, higher = larger tumour
# Outline: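 Read-out: treated (T) over vehicle control (C) ratio of survival or tumor size. Dosing in animals carrying the transplanted tumor.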
# [1] = dose: 300.0 mg/kg/injection, schedule: Q04DX003 (sc), vehicle: saline with Tween-80
# [2] = dose: 600.0 mg/kg/injection, schedule: Q04DX003 (sc), vehicle: saline with Tween-80
# [3] = dose: 1200.0 mg/kg/injection, schedule: Q04DX003 (sc), vehicle: saline with Tween-80
# [4] = dose: 2400.0 mg/kg/injection, schedule: Q04DX003 (sc), vehicle: saline with Tween-80
# [5] = dose: 200.0 mg/kg/injection, schedule: Q04DX003 (sc), vehicle: Klucel (hydroxypropylcellulose) (HPC)
# [6] = dose: 400.0 mg/kg/injection, schedule: Q04DX003 (sc), vehicle: Klucel (hydroxypropylcellulose) (HPC)
# [7] = dose: 800.0 mg/kg/injection, schedule: Q04DX003 (sc), vehicle: Klucel (hydroxypropylcellulose) (HPC)
# [8] = dose: 300.0 mg/kg/injection, schedule: Q04DX003 (sc), vehicle: Klucel (hydroxypropylcellulose) (HPC)
# [9] = dose: 600.0 mg/kg/injection, schedule: Q04DX003 (sc), vehicle: Klucel (hydroxypropylcellulose) (HPC)
# [10] = dose: 50.0 mg/kg/injection, schedule: Q01DX010 (sc), vehicle: saline
# [11] = dose: 100.0 mg/kg/injection, schedule: Q01DX010 (sc), vehicle: saline
# [12] = dose: 100.0 mg/kg/injection, schedule: Q04DX003 (sc), vehicle: Klucel (hydroxypropylcellulose) (HPC)
structure (smiles),measurement,setting,value
CC(=O)OCC1OC(n2ncc(=O)[nH]c2=O)C(OC(C)=O)C1OC(C)=O (stereo unspecified),T/C,"dose: 150.0 mg/kg/injection, schedule: Q04DX003 (sc), vehicle: suspension in saline",67 % of control
same,T/C,"dose: 300.0 mg/kg/injection, schedule: Q04DX003 (sc), vehicle: suspension in saline",112 % of control
same,T/C,"dose: 600.0 mg/kg/injection, schedule: Q04DX003 (sc), vehicle: suspension in saline",78 % of control
O=C(O)C1(C(=O)O)CCC1.[NH2-].[NH2-].[Pt+2],T/C,"dose: 12.5 mg/kg/injection, schedule: Q01DX010 (sc), vehicle: dextrose",2 % of control and 11 % of control
same,T/C,"dose: 50.0 mg/kg/injection, schedule: Q01DX010 (sc), vehicle: dextrose",-87 % of control and -75 % of control
COC1C(C)OC(OC2CC(C)(O)Cc3cc4c(c(O)c32)C(=O)c2c(O)cc3c(c2C4=O)OC2OC3(C)C(O)C(N(C)C)C2O)C(OC)C1(C)OC (stereo unspecified),T/C,"dose: 10.0 mg/kg/injection, schedule: Q04DX003 (sc), vehicle: Klucel (hydroxypropylcellulose) (HPC)",82 % of control
same,T/C,"dose: 20.0 mg/kg/injection, schedule: Q04DX003 (sc), vehicle: Klucel (hydroxypropylcellulose) (HPC)",94 % of control
same,T/C,"dose: 40.0 mg/kg/injection, schedule: Q04DX003 (sc), vehicle: Klucel (hydroxypropylcellulose) (HPC)",84 % of control
same,T/C,"dose: 80.0 mg/kg/injection, schedule: Q04DX003 (sc), vehicle: Klucel (hydroxypropylcellulose) (HPC)",76 % of control
C/C=C(\C)C(=O)OC1C(C)=C2C(C1OC(=O)CCCCC)C(C)(OC(C)=O)CC(OC(=O)CCC)C1(O)C2OC(=O)C1(C)O (stereo unspecified),T/C,"dose: 2.0 mg/kg/injection, schedule: Q04DX003 (ip), vehicle: Klucel (hydroxypropylcellulose) (HPC)",52 % of control
CCC1=C[C@H]2CN(CCc3c([nH]c4ccccc34)[C@@](C(=O)OC)(c3cc4c(cc3OC)N(C)[C@H]3[C@@](O)(C(=O)OC)[C@H](OC(C)=O)[C@]5(CC)C=CCN6CC[C@]43[C@@H]65)C2)C1,T/C,"dose: 3.0 mg/kg/injection, schedule: Q04DX003 (sc), vehicle: water",108 % of control
same,T/C,"dose: 6.0 mg/kg/injection, schedule: Q04DX003 (sc), vehicle: water",84 % of control
same,T/C,"dose: 12.0 mg/kg/injection, schedule: Q04DX003 (sc), vehicle: water",56 % of control
COc1cccc2c1C(=O)c1c(O)c3c(c(O)c1C2=O)C[C@@](O)(C(=O)COC(=O)c1cccnc1)C[C@@H]3OC1CC(N)C(O)C(C)O1 (stereo partly specified),T/C,"dose: 6.0 mg/kg/injection, schedule: Q04DX003 (sc), vehicle: saline",52 % of control and 58 % of control
same,T/C,"dose: 12.0 mg/kg/injection, schedule: Q04DX003 (sc), vehicle: saline",15 % of control and 26 % of control
same,T/C,"dose: 24.0 mg/kg/injection, schedule: Q04DX003 (sc), vehicle: saline",20 % of control
CCCCCCCC(=O)[O][Hg][CH2]C1COC([CH2][Hg][O]C(=O)CCCCCCC)CO1 (stereo unspecified),T/C,[1],58 % of control
same,T/C,[2],70 % of control
same,T/C,[3],50 % of control
same,T/C,[4],36 % of control
O=C1CC2(C(=O)N1CN1CCCCC1)c1ccccc1-c1ccccc12,T/C,[5],79 % of control
same,T/C,[6],71 % of control
same,T/C,[7],72 % of control
OC1CCCC2CCCNC12 (stereo unspecified),T/C,"dose: 37.5 mg/kg/injection, schedule: Q04DX003 (sc), vehicle: saline with Tween-80",76 % of control
same,T/C,"dose: 75.0 mg/kg/injection, schedule: Q04DX003 (sc), vehicle: saline with Tween-80",85 % of control
Oc1c(Cl)cc(C(c2cc(Cl)c(O)c(Cl)c2)C(c2cc(Cl)c(O)c(Cl)c2)c2cc(Cl)c(O)c(Cl)c2)cc1Cl,T/C,[8],108 % of control
same,T/C,[9],79 % of control
same,T/C,"dose: 1200.0 mg/kg/injection, schedule: Q04DX003 (sc), vehicle: Klucel (hydroxypropylcellulose) (HPC)",73 % of control
same,T/C,"dose: 2400.0 mg/kg/injection, schedule: Q04DX003 (sc), vehicle: Klucel (hydroxypropylcellulose) (HPC)",88 % of control
O=C(NO)c1cc(O)c(O)c(O)c1,T/C,"dose: 200.0 mg/kg/injection, schedule: Q04DX003 (sc), vehicle: distilled water + Tween-80",64 % of control
same,T/C,"dose: 400.0 mg/kg/injection, schedule: Q04DX003 (sc), vehicle: distilled water + Tween-80",109 % of control
same,T/C,"dose: 800.0 mg/kg/injection, schedule: Q04DX003 (sc), vehicle: distilled water + Tween-80",122 % of control
CC[C@@]1(O)C[C@H](OC2CC(N(C)C)C(OC3CC(O)C(OC4CCC(=O)C(C)O4)C(C)O3)C(C)O2)c2c(cc3c(c2O)C(=O)c2c(O)cccc2C3=O)[C@H]1C(=O)OC (stereo partly specified),T/C,"dose: 0.25 mg/kg/injection, schedule: Q01DX010 (sc), vehicle: water",91 % of control
same,T/C,"dose: 0.5 mg/kg/injection, schedule: Q01DX010 (ip), vehicle: water",74 % of control and 78 % of control
same,T/C,"dose: 0.5 mg/kg/injection, schedule: Q01DX010 (sc), vehicle: water",113 % of control
same,T/C,"dose: 1.0 mg/kg/injection, schedule: Q01DX010 (sc), vehicle: water",35 % of control
same,T/C,"dose: 2.0 mg/kg/injection, schedule: Q01DX010 (ip), vehicle: water",7 % of control
same,T/C,"dose: 4.0 mg/kg/injection, schedule: Q01DX010 (sc), vehicle: water",65 % of control
CC(=O)NCCCCCCNC(C)=O,T/C,[10],163 % of control
same,T/C,[11],124 % of control
same,T/C,"dose: 200.0 mg/kg/injection, schedule: Q01DX010 (sc), vehicle: saline",103 % of control and 111 % of control
same,T/C,"dose: 400.0 mg/kg/injection, schedule: Q01DX010 (sc), vehicle: saline",84 % of control
same,T/C,"dose: 800.0 mg/kg/injection, schedule: Q01DX010 (sc), vehicle: saline",88 % of control
same,T/C,"dose: 1600.0 mg/kg/injection, schedule: Q01DX010 (sc), vehicle: saline",78 % of control and 103 % of control
same,T/C,"dose: 3200.0 mg/kg/injection, schedule: Q01DX010 (sc), vehicle: saline",104 % of control
same,T/C,"dose: 6400.0 mg/kg/injection, schedule: Q01DX010 (sc), vehicle: saline",58 % of control
CC(=O)OCC1(C)NC(=O)c2ccccc2O1 (stereo unspecified),T/C,[1],108 % of control
same,T/C,[2],108 % of control
same,T/C,[3],156 % of control
same,T/C,[4],85 % of control
COc1ccc([I+]c2cccc(Cl)c2)cc1Cl,T/C,"dose: 150.0 mg/kg/injection, schedule: Q04DX003 (sc), vehicle: saline with Tween-80",114 % of control
same,T/C,[1],100 % of control
same,T/C,[2],84 % of control
same,T/C,[3],41 % of control
CCN(CC)CCNc1ccc(C)c2sc3ccccc3c(=O)c12,T/C,[10],79 % of control
same,T/C,[11],53 % of control
CN(C=O)C(C(=O)Nc1cccc2c(OC(=O)C(N(C)C=O)(N(C)C=O)N(C)C=O)c(N=Nc3ccc(S(=O)(=O)Nc4nccs4)cc3)cc(N=Nc3ccc(S(=O)(=O)Nc4nccs4)cc3)c12)(N(C)C=O)N(C)C=O (tested in a mixture with another compound),T/C,[1],108 % of control
same,T/C,[4],90 % of control
C[C@]12CCC(=O)C=C1CC[C@@H]1[C@@H]2C(=O)C[C@@]2(C)[C@H]1CC[C@]2(O)C(=O)CO,T/C,[8],108 % of control
same,T/C,[9],45 % of control
CCCCCCCCCCCCCCCCS(=O)CC(O)COC(=O)c1ccc(C(=O)OCC(O)CS(=O)CCCCCCCCCCCCCCCC)cc1 (stereo unspecified),T/C,"dose: 50.0 mg/kg/injection, schedule: Q01DX010 (sc), vehicle: saline + Tween-80 + alcohol",58 % of control
same,T/C,"dose: 100.0 mg/kg/injection, schedule: Q01DX010 (sc), vehicle: saline + Tween-80 + alcohol",115 % of control
same,T/C,"dose: 200.0 mg/kg/injection, schedule: Q01DX010 (sc), vehicle: saline + Tween-80 + alcohol",100 % of control
same,T/C,"dose: 400.0 mg/kg/injection, schedule: Q01DX010 (sc), vehicle: saline + Tween-80 + alcohol",82 % of control
O=c1[nH]cnc2n[nH]nc12,T/C,[12],54 % of control
same,T/C,[5],27 % of control
same,T/C,[6],48 % of control
same,T/C,[7],31 % of control
COC(=O)Nc1cccc(-c2nc3ccc(NC(=O)OC)cc3c(=O)n2-c2ccccc2)c1,T/C,"dose: 25.0 mg/kg/injection, schedule: Q01DX010 (sc), vehicle: Klucel (hydroxypropylcellulose) (HPC)",87 % of control
same,T/C,"dose: 100.0 mg/kg/injection, schedule: Q01DX010 (sc), vehicle: Klucel (hydroxypropylcellulose) (HPC)",33 % of control
same,T/C,"dose: 400.0 mg/kg/injection, schedule: Q01DX010 (sc), vehicle: Klucel (hydroxypropylcellulose) (HPC)",123 % of control
O=C(Nc1ccc(N=C=S)cc1Cl)c1cc(Cl)cc(Cl)c1O,T/C,"dose: 25.0 mg/kg/injection, schedule: Q04DX003 (sc), vehicle: Klucel (hydroxypropylcellulose) (HPC)",105 % of control
same,T/C,"dose: 50.0 mg/kg/injection, schedule: Q04DX003 (sc), vehicle: Klucel (hydroxypropylcellulose) (HPC)",79 % of control
same,T/C,[12],117 % of control
same,T/C,[6],50 % of control
same,T/C,[7],48 % of control
